These results are taken from ChEMBL document CHEMBL3608307, “(±)-Acortatarinowins A-F, Norlignan, Neolignan, and Lignan Enantiomers from Acorus tatarinowii” (J Nat Prod, 2015).

What is called IC50 is the concentration at which inhibition is half-maximal. A low value points to greater potency in that assay.

In this test the test system is RAW264.7. Description: Inhibition of LPS-induced nitric oxide production in mouse RAW264.7 cells after 24 hrs by Griess assay. The test is classed as functional, cell-based. The conditions noted are these: RAW264.7, 24 h. A general note: The Griess reaction detects nitrite, a stable product of nitric oxide.
Turning to `COc1cc(OC)c([C@H]2[C@@H](C)[C@@H](c3cc(OC)c(OC)cc3OC)O[C@@H]2C)cc1OC`, the IC50 was above 50 µM.
Regarding `COC(=O)c1ccc(O[C@@H](C)[C@@H](O)c2cc(OC)c(OC)c(OC)c2)c(OC)c1`, the concentration for half-maximal inhibition (IC50) was 29.5 µM.
The same measure for `COc1cc(OC)c([C@@H]2[C@H](C)[C@H](c3cc(OC)c(OC)cc3OC)O[C@H]2C)cc1OC`: above 50 µM.
The same measure for `COc1cc(OC)cc([C@H]2OC[C@H]3[C@@H]2CO[C@@H]3c2cc(OC)c(OC)c(OC)c2)c1`: above 50 µM; for `COc1cc(OC)cc([C@@H]2OC[C@@H]3[C@H]2CO[C@H]3c2cc(OC)c(OC)c(OC)c2)c1`: 26.6 µM; for `COc1cc([C@@H]2O[C@@H](c3ccc(O)c(OC)c3)[C@H](C)[C@H]2C)ccc1O`: 37.8 µM.
The same measure for `COc1cc([C@H]2O[C@H](c3ccc(O)c(OC)c3)[C@@H](C)[C@@H]2C)ccc1O`: 38 µM; for `COC(=O)c1ccc(O[C@@H](C)[C@@H](O)c2ccc(OC)c(OC)c2)c(OC)c1` (relative stereo): 23.3 µM.
Compound `COc1ccc([C@H]2OC[C@H]3[C@@H]2CO[C@@H]3c2ccc(OC)c(OC)c2)cc1OC` [(+)-EUDESMIN] yielded a half-maximal inhibitory concentration (IC50) above 50 µM.
The compound `C[C@@H]1C[C@H]2[C@@H]3CCC4=CC(=O)C=C[C@]4(C)[C@@]3(F)[C@@H](O)C[C@]2(C)[C@@]1(O)C(=O)CO` [DEXAMETHASONE] showed an IC50 of 0.8 µM.
To `COc1ccc([C@@H]2OC[C@@H]3[C@H]2CO[C@H]3c2ccc(OC)c(OC)c2)cc1OC` [EUDESMINE] belongs above 50 µM.
